Assay results taken from patent US6482948B1, “Thienopyrimidine compounds and salts thereof and process for the preparation of the same” (Nippon Soda Co., Ltd., priority 1999, dated 2002).

Assays:
[1] = target: PDE 1 (Ca-calmodulin activatable PDE); test: Phosphodiesterase inhibiting activity, PDE 1; type: biochemical; conditions: isozyme from dog heart; 1 μM [3H]-cAMP or [3H]-cGMP; read-out: Inhibition of PDE Activity: IC50 PDE 1
Experimental: (§1) Pharmacological Test Example 1: Phosphodiesterase Inhibiting Activity
(§2) Cyclic nucleotide phosphodiesterases from human platelets and from the heart and kidney of a dog were eluted by the concentration gradient method with 70 to 1000 mM of sodium acetate on DEAE-cellulose column chromatography (Whatman Co. Ltd., DE-52, φ3.2×13 cm) according to the method of Thompson and others (Thompson W. J., et al., Advances in Cyclic Nucleotide Research: 10, 69-92, 1979), and separated into isozymes. PDE 5 (cGMP specific PDE) and PDE 3 (cGMP inhibitable cAMP PDE) were separated from the platelets, PDE 1 (Ca-calmodulin activatable PDE) from the heart, and PDE 4 (cGMP non-inhibitable cAMP PDE) from the kidney. The method of Thompson, et al was partially modified to measure phosphodiesterase activities: 1 μM of [3H]-cAMP or [3H]-cGMP was decomposed with phosphodiesterase. The produced 5′-AMP or 5′-GMP was decomposed to adenosine or guanosine with a snake venom (Sigma V7000). The reaction solution was added to anion exchange resin (Bio-Rad Co. Ltd., AG1-X8). Non-adsorbed adenosine or guanosine was counted by a liquid scintillation counter. A concentration causing 50% inhibition of the enzyme activity (IC50) was calculated from concentration inhibition curves.

PDE 2 = target: T1, PDE 2 (Homo sapiens, UniProt O00408); test: Phosphodiesterase inhibiting activity, PDE 2; type: biochemical; conditions: 1 μM [3H]-cAMP or [3H]-cGMP; source of isozyme not given; read-out: Inhibition of PDE Activity: IC50 PDE 2
T1 construct: eluted by the concentration gradient method with 70 to 1000 mM of sodium acetate on DEAE-cellulose column chromatography; from tissue
Experimental: [Worded in the source for another target; this target is reported under the same test.] as §1, §2

[2] = target: T2, PDE 3 (cGMP inhibitable cAMP PDE) (Homo sapiens, UniProt Q14432); test: Phosphodiesterase inhibiting activity, PDE 3; type: biochemical; conditions: isozyme from human platelets; 1 μM [3H]-cAMP or [3H]-cGMP; read-out: Inhibition of PDE Activity: IC50 PDE 3
T2 construct: from tissue; host or cells: human platelets
Experimental: as §1, §2

[3] = target: PDE 4 (cGMP non-inhibitable cAMP PDE); test: Phosphodiesterase inhibiting activity, PDE 4; type: biochemical; conditions: isozyme from dog kidney; 1 μM [3H]-cAMP or [3H]-cGMP; read-out: Inhibition of PDE Activity: IC50 PDE 4
Experimental: as §1, §2

[4] = target: T3, PDE 5 (cGMP specific PDE) (Homo sapiens, UniProt O76074); test: Phosphodiesterase inhibiting activity, PDE 5; type: biochemical; conditions: isozyme from human platelets; 1 μM [3H]-cAMP or [3H]-cGMP; read-out: Inhibition of PDE Activity: IC50 PDE 5
T3 construct: from tissue; host or cells: human platelets
Experimental: as §1, §2

thoracic aortas = test: Vasodilating activity, phenylephrine-contracted thoracic aorta ring preparations (Magnus method); parameters: species or system Sprague-Dawley male rats; conditions: rat thoracic aorta ring preparations contracted with 1 μM phenylephrine, 37° C., drug added cumulatively
Experimental: Pharmacological Test Example 2: Vasodilating Activity
A vasodilating activity was assessed according to the method of Ken-ichi Hirata and Mitsuhiro Yokoyama (Arteriosclerosis and Hyperlipemia Research Strategies, published by Shujunsha (Japan), pages 275-277, 1996): The thoracic aortas were extracted from Sprague-Dawley male rats (weighing 180 to 360 g). After unnecessary connective tissues were removed, the aortas were cut to 5mm-long pieces to make ring strip preparations, and assessed by the Magnus method (37° C.). A nutrient solution used was a Krebs-Henseleit solution aerated with 5% carbon dioxide gas and 95% oxygen gas. Specimens were equilibrated for about 60 minutes, and then contracted by adding 1 μM of phenylephrine. 1 μM of acetylcholine was added at the second phenylepherine-induced contraction in order to confirm an endothelial cell dependent relaxation response. At the third phenylepherine-induced contraction, a drug to test was added cumulatively, and the relaxation action was observed. Drugs to test were all dissolved in DMSO to use for the tests. The tested drugs were assessed by 50% relaxation rates (EC50) obtained from vasodilation rates to respective concentrations (the maximum relaxation was measured by adding 100 μM of papaverine).

T2 sequence (Q14432 whole entry): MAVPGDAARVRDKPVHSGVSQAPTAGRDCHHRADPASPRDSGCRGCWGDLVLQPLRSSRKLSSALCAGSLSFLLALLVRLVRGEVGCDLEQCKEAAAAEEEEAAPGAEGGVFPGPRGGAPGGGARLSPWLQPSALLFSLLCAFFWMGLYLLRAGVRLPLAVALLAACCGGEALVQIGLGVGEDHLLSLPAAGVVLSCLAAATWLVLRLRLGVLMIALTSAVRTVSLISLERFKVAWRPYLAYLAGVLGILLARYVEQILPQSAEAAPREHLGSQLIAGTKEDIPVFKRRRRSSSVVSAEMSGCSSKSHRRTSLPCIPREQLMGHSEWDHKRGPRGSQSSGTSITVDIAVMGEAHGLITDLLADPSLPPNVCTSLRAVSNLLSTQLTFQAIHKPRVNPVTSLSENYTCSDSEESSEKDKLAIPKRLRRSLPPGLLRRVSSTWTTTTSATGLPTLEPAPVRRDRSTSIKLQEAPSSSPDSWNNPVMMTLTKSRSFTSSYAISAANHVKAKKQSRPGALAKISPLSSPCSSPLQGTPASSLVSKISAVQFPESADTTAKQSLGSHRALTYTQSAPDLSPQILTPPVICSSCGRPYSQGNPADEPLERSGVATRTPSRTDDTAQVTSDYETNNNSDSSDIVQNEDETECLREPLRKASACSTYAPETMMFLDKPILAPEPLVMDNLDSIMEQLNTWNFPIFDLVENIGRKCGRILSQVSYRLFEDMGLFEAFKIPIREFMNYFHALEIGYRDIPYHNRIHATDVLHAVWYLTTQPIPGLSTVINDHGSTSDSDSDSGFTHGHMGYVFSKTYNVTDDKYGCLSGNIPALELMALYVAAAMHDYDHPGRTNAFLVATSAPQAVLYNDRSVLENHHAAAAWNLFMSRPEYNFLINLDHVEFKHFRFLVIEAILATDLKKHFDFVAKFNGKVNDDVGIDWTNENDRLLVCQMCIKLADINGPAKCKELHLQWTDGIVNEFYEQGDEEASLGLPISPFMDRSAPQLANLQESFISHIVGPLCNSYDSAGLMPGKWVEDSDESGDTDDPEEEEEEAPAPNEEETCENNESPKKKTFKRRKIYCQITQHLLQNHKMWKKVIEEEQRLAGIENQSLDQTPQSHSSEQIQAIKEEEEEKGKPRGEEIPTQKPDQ
T1 sequence (O00408 whole entry): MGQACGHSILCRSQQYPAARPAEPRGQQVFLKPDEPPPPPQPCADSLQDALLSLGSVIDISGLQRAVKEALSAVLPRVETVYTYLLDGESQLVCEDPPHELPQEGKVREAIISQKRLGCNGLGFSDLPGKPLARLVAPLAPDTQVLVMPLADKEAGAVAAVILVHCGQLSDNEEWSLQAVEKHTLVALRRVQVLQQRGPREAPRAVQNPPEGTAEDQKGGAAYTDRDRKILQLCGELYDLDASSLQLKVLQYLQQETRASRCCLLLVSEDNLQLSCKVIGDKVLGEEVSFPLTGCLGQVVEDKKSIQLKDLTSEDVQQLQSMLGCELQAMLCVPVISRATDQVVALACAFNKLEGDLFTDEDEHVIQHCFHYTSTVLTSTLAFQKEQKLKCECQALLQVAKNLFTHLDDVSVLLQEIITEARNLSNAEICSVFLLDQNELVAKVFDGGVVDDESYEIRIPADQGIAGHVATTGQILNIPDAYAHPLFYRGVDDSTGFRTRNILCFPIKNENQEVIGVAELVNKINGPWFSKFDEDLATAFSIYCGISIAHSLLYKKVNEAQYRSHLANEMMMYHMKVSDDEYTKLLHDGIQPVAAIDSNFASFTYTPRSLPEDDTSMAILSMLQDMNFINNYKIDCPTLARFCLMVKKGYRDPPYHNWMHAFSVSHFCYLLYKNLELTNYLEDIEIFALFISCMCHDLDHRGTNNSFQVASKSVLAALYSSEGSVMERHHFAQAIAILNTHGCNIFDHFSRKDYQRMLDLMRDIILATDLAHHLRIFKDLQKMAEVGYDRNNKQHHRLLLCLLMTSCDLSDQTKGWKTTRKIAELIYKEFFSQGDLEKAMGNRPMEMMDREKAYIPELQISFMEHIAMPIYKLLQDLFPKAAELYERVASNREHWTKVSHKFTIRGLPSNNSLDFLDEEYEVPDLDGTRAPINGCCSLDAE

| Structure (SMILES) | IC50 [1] [µM] | IC50 (PDE 2) [µM] | IC50 [2] [µM] | IC50 [3] [µM] | IC50 [4] [µM] | EC50 (thoracic aortas) [µM] | melting point [°C] |
| --- | --- | --- | --- | --- | --- | --- | --- |
| CCOC(=O)N1CCc2c(sc3nc(-c4ccncc4)nc(NCc4ccc(OC)c(Cl)c4)c23)C1 [1-5] | > 10 | > 10 | > 10 | 2.5 | 0.00054 | 0.0081 | 218 to 220 |
| COc1ccc(CNc2nc(-c3ccco3)nc3sc4c(c23)CCN(C)C4)cc1Cl [1-6] | 5.5 | > 10 | > 10 | 3.6 | 0.05 | 0.016 | 90 to 92 |
| COc1ccc(CNc2nc(-c3ccncc3)nc3sc4c(c23)CCN(C)C4)cc1Cl [1-7] | > 10 | 2 | 5.4 | 3.7 | 0.0024 | 0.0095 | 118 to 120 |
| COc1ccc(CNc2nc(-c3cccnc3)nc3sc4c(c23)CCN(C(C)=O)C4)cc1Cl [1-9, 5,6,7,8-tetrahydro-4-[(3-chloro-4-methoxy)benzylamino]-7-acetyl-2-(3-pyridyl)pyrido[4′,3′:4,5]thieno[2,3-d]pyrimidine] | – | – | – | – | – | 0.0063 | 226 to 227 |
| COC(=O)CNC(=O)c1nc(NCc2ccc(OC)c(Cl)c2)c2c3c(sc2n1)CN(C(C)C)CC3 [1-54] | > 10 | > 10 | ≥ 10 | > 10 | 0.033 | 0.019 | 155 to 157 |
| COC(=O)c1nc(NCc2ccc(OC)c(Cl)c2)c2c3c(sc2n1)CN(Cc1ccccc1)CC3 [1-65] | > 10 | > 10 | > 10 | > 10 | 0.091 | 0.26 | 168 to 170 |
| COc1ccc(CNc2nc(C(=O)Nc3ccccc3)nc3sc4c(c23)CCN(C)C4)cc1Cl [1-72] | > 10 | > 10 | > 10 | > 10 | 0.0018 | 0.0074 | – |
| COc1ccc(CNc2nc(C(=O)Nc3ccccc3)nc3sc4c(c23)CCN(C(C)C)C4)cc1Cl [1-75] | > 10 | > 10 | > 10 | 8.4 | 0.0014 | 0.0093 | – |
| COc1ccc(CNc2nc(C(=O)NC3CC3)nc3sc4c(c23)CCN(C(C)C)C4)cc1Cl [1-76] | > 10 | > 10 | > 10 | > 10 | 0.056 | 0.026 | 112 to 114 |
| COc1ccc(CNc2nc(C(=O)NCc3ccccc3)nc3sc4c(c23)CCN(C)C4)cc1Cl [1-79] | 0.67 | > 10 | > 10 | 5.1 | 0.016 | 0.018 | – |
| COC(=O)c1ccc(NC(=O)c2nc(NCc3ccc(OC)c(Cl)c3)c3c4c(sc3n2)CN(C)CC4)cc1 [1-80] | > 10 | 3.3 | > 10 | 4.1 | 0.053 | 0.025 | – |
| COc1ccc(CNc2nc(C(=O)Nc3cccnc3)nc3sc4c(c23)CCN(C)C4)cc1Cl [1-81] | > 10 | > 10 | > 10 | 6.4 | 0.006 | 0.0031 | 145 to 147 |
| CCOC(=O)Cc1nc(NCc2ccc(OC)c(Cl)c2)c2c3c(sc2n1)C(=O)N(C(C)C)CC3 [2-10] | > 10 | > 10 | 7.4 | 8 | 0.039 | 0.018 | – |
| COc1ccc(CNc2nc(C(=O)Nc3ccccc3)nc3sc4c(c23)CCCC4)cc1Cl [3-2] | > 10 | > 10 | > 10 | > 10 | 0.00039 | – | 210 to 211 |
